Data: patent publication US20230295201A1 (Gilead Sciences, Inc., priority 2020, published 2023)
Where two headings read alike, the source gives them in different places.

Legend:
Assay type in all cases: cell-based
RSV strain A2 = assay: RSV HEp-2 EC50 (infectious cytopathic cell protection assay); conditions: read-out: RSV HEp-2 EC50
Summary of the method: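 Percent inhibition of RSV-induced cytopathic effect came from remaining cell viability (CellTiter-Glo luminescence) after 4 days at 37° C. Compounds in 3-fold serial dilutions were exposed to an infectious mix of titered A2 virus and HEp-2 cells at 50,000/ml, with 0% and 100% inhibition control standards.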

RSV A2 = assay: RSV NHBE EC50 (RSV A2 antiviral assay in normal human bronchial epithelial cells); conditions: read-out: RSV NHBE EC50
HRV16 = HRV16 HELA EC50 (cytopathic effect in H1-HeLa cells)
Summary of the method: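 Read-out is luminescent cell viability (CellTiter-Glo) after 96 h of infection at 33 °C, scaled between uninfected and infected-untreated wells. Before infection with titrated virus, compounds went onto H1-HeLa cells as triplicate 3-fold dilution series.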

DENV2 replicon = assay: DENV-2 Huh-7 Rep EC50 (replicon luminescence); conditions: read-out: DENV-2 Huh-7 Rep EC50
Summary of the method: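 EC50 derived from luminescence dose-response, normalised to DMSO-only 0% inhibition wells, after 1.5 h with EnduRen substrate. Compounds were first exposed for 48 h at 37° C to DENV2 replicon Huh-7 cells (5,000/well).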

[1] = Dengue virus, DENV2, Huh-7, 48 h
[2] = human respiratory syncytial virus, 96 h, HEp-2 cells, RSV A2, 4 days
[3] = human respiratory syncytial virus, 96 h, NHBE cells, RSV A2, 4 days
[4] = H1-HeLa cells, 96 h, 33° C.; read-out: HRV16 HELA EC50
[5] = human respiratory syncytial virus, HEp-2, 96 h, HEp-2 cells, RSV A2, 4 days
[6] = human respiratory syncytial virus, NHBE, 96 h, NHBE cells, RSV A2, 4 days
[7] = 96 h, H1-HeLa cells, 33° C., read-out: HRV16 HELA EC50
[8] = Dengue virus, DENV2, Huh-7, 48 h, Huh-7 replicon cells, 48 hours

SMILES | EC50 (RSV strain A2; [5]) [nM] | EC50 (RSV A2; [6]) [nM] | EC50 (HRV16; [7]) [nM] | EC50 (DENV2 replicon; [8]) [nM] | also measured
CCC(CC)COC(=O)[C@H](C)OP(=O)(OC[C@@]1(C#N)O[C@@H](c2ccc3c(N)ncnn23)[C@H](O)[C@@H]1O)Oc1ccccc1 (stereo partly drawn) [Example 244, 2-ethylbutyl (2S)-2-(((((2R,3S,4R,5S)-5-(4-aminopyrrolo [2,1-f][1,2,4]triazin-7-yl)-2-cyano-3,4-dihydroxytetrahydrofuran-2-yl)methoxy)(phenoxy)phosphoryl)oxy)propanoate] | – | – | – | – | EC50 (RSV strain A2; human respiratory syncytial virus, HEp-2, 96 h): 4950 nM; EC50 (RSV A2; human respiratory syncytial virus, NHBE, 96 h): > 5000 nM; EC50 (HRV16; 96 h, read-out: HRV16 HELA EC50): 33600 nM; EC50 (DENV2 replicon; [1]): 36700 nM
CCCCOC(=O)[C@H](C)NP(=O)(N[C@@H](C)C(=O)OCCCC)OC[C@@]1(C#N)O[C@@H](c2ccc3c(N)ncnn23)[C@H](O)[C@@H]1O [Example 218] | – | – | – | – | EC50 (RSV strain A2; [2]): 1160 nM; EC50 (RSV A2; [3]): 280 nM; EC50 (HRV16; [4]): 11300 nM; EC50 (DENV2 replicon; [1]): > 50000 nM
CCC(CC)COC(=O)[C@H](Cc1ccccc1)NP(=O)(OC[C@@]1(C#N)O[C@@H](c2ccc3c(N)ncnn23)[C@H](O)[C@@H]1O)Oc1ccccc1 (stereo partly drawn) [Example 81, (2S)-2-ethylbutyl 2-(((((2R,3S,4R,5S)-5-(4-aminopyrrolo[2,1-f][1,2,4]triazin-7-yl)-2-cyano-3,4-dihydroxytetrahydrofuran-2-yl)methoxy)(phenoxy)phosphoryl)amino)-3-phenylpropanoate] | 3570 | 2650 | 3370 | 38900 | –
CC(NP(=O)(OC[C@@]1(C#N)O[C@@H](c2ccc3c(N)ncnn23)[C@H](O)[C@@H]1O)Oc1ccccc1)C(=O)O[C@H]1CCNC1=O (mixture of isomers) [Example 153, (S)-2-oxopyrrolidin-3-yl ((((2R,3S,4R,5S)-5-(4-aminopyrrolo[2,1-f][1,2,4]triazin-7-yl)-2-cyano-3,4-dihydroxytetrahydrofuran-2-yl)methoxy)(phenoxy)phosphoryl)alaninate] | 7140 | > 5000 | 12500 | > 100000 | –
C[C@H](NP(=O)(N[C@@H](C)C(=O)OCC1CC1)OC[C@@]1(C#N)O[C@@H](c2ccc3c(N)ncnn23)[C@H](O)[C@@H]1O)C(=O)OCC1CC1 [Example 214, ((2R,3S,4R,5S)-5-(4-aminopyrrolo[2,1-f][1,2,4]triazin-7-yl)-2-cyano-3,4-dihydroxytetrahydrofuran-2-yl)methyl bis-cyclopropylmethyl L-alaninate phosphate] | – | – | – | – | EC50 (RSV strain A2; [2]): 2940 nM; EC50 (RSV A2; [3]): 551 nM; EC50 (HRV16; [4]): 25800 nM; EC50 (DENV2 replicon; [1]): > 50000 nM
C[C@H](NP(=O)(OC[C@@]1(C#N)O[C@@H](c2ccc3c(N)ncnn23)[C@H](O)[C@@H]1O)Oc1ccccc1)C(=O)O[C@H]1CC[C@H](C(C)(C)C)CC1 (stereo partly drawn) [Example 21, trans-4-(tert-butyl)cyclohexyl ((((2R,3S,4R,5S)-5-(4-aminopyrrolo[2,1-f][1,2,4]triazin-7-yl)-2-cyano-3,4-dihydroxytetrahydrofuran-2-yl)methoxy)(phenoxy)phosphoryl)-L-alaninate] | 79 | 27 | 230 | 11000 | –
COC1CCC(OC(=O)[C@H](C)NP(=O)(OC[C@@]2(C#N)O[C@@H](c3ccc4c(N)ncnn34)[C@H](O)[C@@H]2O)Oc2ccccc2)CC1 (stereo partly drawn) [Example 165, 4-methoxycyclohexyl ((((2R,3S,4R,5S)-5-(4-aminopyrrolo[2,1-f][1,2,4]triazin-7-yl)-2-cyano-3,4-dihydroxytetrahydrofuran-2-yl)methoxy)(phenoxy)phosphoryl)alaninate] | 1940 | 1610 | 11300 | > 100000 | –
C[C@H](N[P@](=O)(OC[C@@]1(C#N)O[C@@H](c2ccc3c(N)ncnn23)[C@@H]2OC(=O)O[C@@H]21)Oc1ccccc1)C(=O)OC1CCCCC1 [Example 168, cyclohexyl ((S)-(((3aS,4R,6S,6aS)-6-(4-aminopyrrolo[2,1-f][1,2,4]triazin-7-yl)-4-cyano-2-oxotetrahydrofuro[3,4-d][1,3]dioxol-4-yl)methoxy)(phenoxy)phosphoryl)-L-alaninate] | 53 | 103 | 160 | 4670 | –
C[C@H](NP(=O)(OC[C@@]1(C#N)O[C@@H](c2ccc3c(N)ncnn23)[C@H](O)[C@@H]1O)Oc1ccccc1)C(=O)O[C@@H]1CCNC1 (mixture of isomers) [Example 137, (2S)—(R)-pyrrolidin-3-yl 2-(((((2R,3S,4R,5S)-5-(4-aminopyrrolo[2,1-f][1,2,4]triazin-7-yl)-2-cyano-3,4-dihydroxytetrahydrofuran-2-yl)methoxy)(phenoxy)phosphoryl)amino)propanoate] | 3690 | > 5000 | 27000 | > 50000 | –
CCCC(=O)Nc1ncnn2c([C@@H]3O[C@](C#N)(CO[P@@](=O)(N[C@@H](C)C(=O)OC4CCCCC4)Oc4ccccc4)[C@@H](O)[C@H]3O)ccc12 [Example 231, Cyclohexyl ((S)-(((2R,3S,4R,5S)-5-(4-butyramidopyrrolo[2,1-f][1,2,4]triazin-7-yl)-2-cyano-3,4-dihydroxytetrahydrofuran-2-yl)methoxy)(phenoxy)phosphoryl)-L-alaninate] | 152 | 190 | 1200 | 14700 | –
C=CCO[C@H](COCCCCCCCCCCCCCCCCCC)COP(=O)(O)OC[C@@]1(C#N)O[C@@H](c2ccc3c(N)ncnn23)[C@H](O)[C@@H]1O [Example 167, (R)-2-(allyloxy)-3-(octadecyloxy)propyl (((2R,3S,4R,5S)-5-(4-aminopyrrolo[2,1-f][1,2,4]triazin-7-yl)-2-cyano-3,4-dihydroxytetrahydrofuran-2-yl)methyl) hydrogen phosphate] | – | – | – | – | EC50 (RSV strain A2; [2]): 647 nM; EC50 (RSV A2; [3]): 359 nM; EC50 (HRV16; [4]): 12000 nM; EC50 (DENV2 replicon; [1]): > 100000 nM
CC(C)COC(=O)OCCNP(=O)(OC[C@@]1(C#N)O[C@@H](c2ccc3c(N)ncnn23)[C@H](O)[C@@H]1O)Oc1ccccc1 (stereo partly drawn) [Example 177, 2-(((((2R,3S,4R,5S)-5-(4-aminopyrrolo[2,1-f][1,2,4]triazin-7-yl)-2-cyano-3,4-dihydroxytetrahydrofuran-2-yl)methoxy)(phenoxy)phosphoryl)amino)ethyl isobutyl carbonate] | 104 | 1560 | 1160 | > 50000 | –
CC(C)OC(=O)[C@H](C)N[P@](=O)(OC[C@@]1(C#N)O[C@@H](c2ccc3c(N)ncnn23)[C@H](O)[C@@H]1O)Oc1ccccc1 (single isomer, unassigned) [Example 1] | 342 | 879 | 966 | > 50000 | –
C[C@H](NP(=O)(OC[C@@]1(C#N)O[C@@H](c2ccc3c(N)ncnn23)[C@H](O)[C@@H]1O)Oc1ccccc1)C(=O)O[C@H]1CC[C@H](C(F)(F)F)CC1 (stereo partly drawn) [Example 16, trans-4-(trifluoromethyl)cyclohexyl ((((2R,3S,4R,5S)-5-(4-aminopyrrolo[2,1-f][1,2,4]triazin-7-yl)-2-cyano-3,4-dihydroxytetrahydrofuran-2-yl)methoxy)(phenoxy)phosphoryl)-L-alaninate] | 1290 | 104 | 1310 | 70800 | –
C[C@H](NP(=O)(OC[C@@]1(C#N)O[C@@H](c2ccc3c(N)ncnn23)[C@H](O)[C@@H]1O)Oc1ccccc1)C(=O)OC[C@H]1CC[C@H](N)CC1 (stereo partly drawn) [Example 210, ((1r,4S)-4-aminocyclohexyl)methyl ((((2R,3S,4R,5S)-5-(4-aminopyrrolo[2,1-f][1,2,4]triazin-7-yl)-2-cyano-3,4-dihydroxytetrahydrofuran-2-yl)methoxy)(phenoxy)phosphoryl)-L-alaninate] | 1780 | 3020 | 27900 | > 50000 | –
CCOC(=O)C1(NP(=O)(OC[C@@]2(C#N)O[C@@H](c3ccc4c(N)ncnn34)[C@H](O)[C@@H]2O)Oc2ccccc2)CC1 (mixture of isomers) [Example 106, ethyl 1-(((((2R,3S,4R,5S)-5-(4-aminopyrrolo[2,1-f][1,2,4]triazin-7-yl)-2-cyano-3,4-dihydroxytetrahydrofuran-2-yl)methoxy)(phenoxy)phosphoryl)amino)cyclopropanecarboxylate] | > 42500 | > 5000 | > 100000 | > 100000 | –
CC[C@H](N[P@](=O)(OC[C@@]1(C#N)O[C@@H](c2ccc3c(N)ncnn23)[C@H](O)[C@@H]1O)Oc1ccccc1)C(=O)OCC(C)(C)C [Example 159] | – | – | – | – | EC50 (RSV strain A2; HEp-2 cells, RSV A2, 4 days): 220 nM; EC50 (RSV A2; NHBE cells, RSV A2, 4 days): 489 nM; EC50 (HRV16; [4]): 1280 nM; EC50 (DENV2 replicon; Huh-7 replicon cells, 48 hours): > 50000 nM
